Data taken from patent US10440955B2, “Methods comprising a biocidal polyamine” (Curza Global, LLC, priority 2013, dated 2019).
Values joined by “and” are separate entries in the source; they are usually repeats but may differ in a detail not shown here. Identical values can stand only once.

Columns and labels:
MRSA biofilm = experiment: MBEC assay (Calgary Biofilm Device), eradication of 100% of detectable biofilm (Example 2); type: cell-based, Staphylococcus aureus; details: eradicate 100% of detectable biofilm
Method: In addition to determining the MIC, the minimum biofilm eradication concentration (MBEC) of PBC-51 was also determined. The MBEC was determined using the MBEC assay, formerly known as the Calgary Biofilm Device, developed by Innovotech. In this instance, the MBEC was defined as the amount of antimicrobial required to eradicate 100% of detectable biofilm after being grown in the MBEC device. To grow the biofilms within this device, 150 μL of solution containing a concentration of 10^5 cells/mL were inoculated into each well of a 96-well plate. A lid containing 96 pegs was placed onto the plate and incubated for 24 hours at 37° C. while being shaken at 110 rpm. Biofilms developed on the surface of the polystyrene pegs within the 96-well plate. After 24 hours, each peg contained between 10^5 and 10^6 cells in well-established biofilms. The lid with pegs was transferred to a 96-well plate that contained 200 μL of varying concentrations of the compound and was incubated at 37° C. for an additional 24 hours. The plate was then sonicated, and the biofilms quantified using a 10-fold dilution series to determine the MBEC.

P. aeruginosa biofilms [1] = experiment: EBEC, high number biofilms on PEEK membranes, 10^9 to 10^2 CFU/PEEK membrane in 24 hours; type: cell-based; details: Pseudomonas aeruginosa; Table 3B c3; group head missing; read-out: MICs (μg/mL) II: P. aeruginosa
Method: In addition to determining the MIC and the MBEC of polyamine compounds against planktonic bacteria and low number biofilms, our group wanted to determine the efficacy of polyamine compounds against high number biofilms. To do so, biofilms were grown on the surface of polyetheretherketone (PEEK) membranes using a membrane biofilm reactor. This reactor is similar to the CDC biofilm reactor, but rather than growing biofilms on coupon surfaces, the reactor was modified to hold PEEK membranes. In short, to grow biofilms within this system, 500 mL of brain heart infusion (BHI) broth were inoculated with 1 mL of a 0.5 McFarland. The reactor was placed on a hot plate set at 34° C. and the bacteria were grown under batch conditions for 24 hours. Following this protocol, biofilms typically grow to 10^9 CFU/PEEK membrane. […] A solution of 10% BHI was then flowed through the reactor at a rate of 6.94 mL/min for an additional 24 hours. PEEK membranes were then removed and placed into 2 mL of CAMHB that contained a desired concentration of polyamine compound or antibiotic. The EBEC was defined as the concentration of antimicrobial required to reduce a biofilm from approximately 10^9 CFU/PEEK membrane to approximately 10^2 CFU/PEEK membrane in a 24-hour period.

P. aeruginosa biofilms [2] = experiment: MBEC, MBEC Inoculation Tray (Innovotech), to 10^2 CFU/peg in 24 hours; type: cell-based; details: Pseudomonas aeruginosa; Table 3A c5; group head missing, probably MBEC; read-out: MICs (μg/mL): P. aeruginosa (second P. aeruginosa)
Description: To determine the MBEC of each polyamine compound, the MBEC Inoculation Tray by Innovotech, formerly known as the Calgary biofilm device, was used. Within this device, biofilms grow on the surface of polystyrene pegs, 96 of which are attached to a lid. These pegs are inserted into a flat bottom 96-well plate. In this instance, the MBEC of a molecule was defined as the concentration of compound (in μg/mL) required to reduce 10^5 or 10^6 CFU/peg (biofilm levels varied by isolate) to 10^2 CFU/peg in a 24-hour period.
Following the manufacturer's guidelines, biofilms were grown on the surface of each peg by first making a 0.5 McFarland of each isolate. The 0.5 McFarland was diluted 1:100 in CAMHB. Into each well of a flat bottom 96-well plate, 150 μL of broth were pipetted. The plate was shaken at 100 rpm for 24 hours (P. aeruginosa and A. baumannii) or 48 hours (MRSA). The pegs were then placed into a separate flat bottom 96-well plate for 10 seconds with 200 μL of phosphate buffered saline (PBS) in each well to remove nonadherent cells. The lid was then placed into a 96-well plate that contained varying concentrations of antimicrobial with 200 μL per well. The plate was incubated for 24 hours at 37° C. after which time 100 μL of broth were plated on TSA. TSA plates were incubated 24 hours at 37° C. and the number of CFU counted to calculate the CFU/peg. […]

MRSA = experiment: MIC against MRSA (as defined by CLSI); type: cell-based; details: Staphylococcus aureus, FIG. 25
Method: To determine the MIC of the polyamine chains alone and the synthesized compounds against MRSA and P. aeruginosa ATCC 27853, a modified protocol from the Clinical and Laboratory Standards Institute (CLSI) guideline M26-A was used. […] All data was collected using cation adjusted MHB for standardization.
As mentioned, MRSA and P. aeruginosa ATCC 27853 were grown on Columbia blood agar plates prior to experimentation. From the blood agar plates, a 0.5 McFarland standard was made of each isolate. This equated to approximately 5×10^7 cells/mL for the MRSA isolate and approximately 3×10^7 cells/mL for the P. aeruginosa ATCC 27853 isolate. Of the 0.5 McFarland stock solution, 50 μL were added to MHB. […] All tests were performed such that a final volume of 5 mL of MHB were obtained. This provided a final bacterial concentration of approximately 5×10^5 cells/mL.
Each sample was incubated in glass test tubes at 37° C. for 24 hours, then plated in duplicate on tryptic soy agar (TSA) using a 10-fold dilution series. TSA plates were further incubated 24 hours at 37° C. The number of colony forming units (CFU) that grew were counted in order to calculate the number of bacteria that were present per mL in the original MHB solution.

## CN[C@H](CC(C)C)C(=O)N[C@H]1C(=O)N[C@@H](CC(N)=O)C(=O)N[C@H]2C(=O)N[C@H]3C(=O)N[C@H](C(=O)N[C@H](C(=O)O)c4cc(O)cc(O)c4-c4cc3ccc4O)[C@H](O)c3ccc(c(Cl)c3)Oc3cc2cc(c3O[C@@H]2O[C@H](CO)[C@@H](O)[C@H](O)[C@H]2O[C@H]2C[C@](C)(N)[C@H](O)[C@H](C)O2)Oc2ccc(cc2Cl)[C@H]1O [vancomycin, reference compound]
MRSA biofilm
  MBEC (μg/mL/μM): > 500 μg/mL and > 336.50 μM

## NCCCNCCCNCc1ccccc1 [CZ-7, benzylnorspermidine]
P. aeruginosa biofilms [1]
  MIC: > 5000 µg/mL
P. aeruginosa biofilms [2]
  MIC: > 5000 µg/mL
MRSA
  MIC: > 1200 µg/mL
